Laboratory results as given in patent US20210361598A1, “COMPOUNDS FOR PREVENTION AND TREATMENT OF POST-INTENSIVE CARE COGNITIVE DYSFUNCTION AND COGNITIVE DYSFUNCTION RESULTING FROM RESPIRATORY DISTRESS” (Abrexa Pharmaceuticals, Inc., priority 2020, published 2021).
“Also recorded” adds a separate entry of the source.

Assays:
[1] = test system: post-surgical cognitive dysfunction; conditions: cited from earlier work; for Effect on post-surgical cognitive dysfunction: literature reports, after surgery
[2] = test system: neonatal hypoxic-ischemic encephalopathy (HIE) in C57BL6 mice; experiment: TUNEL staining, dose dependency of apoptotic cell death in dentate gyrus, neonatal HIE mouse model; format: in vivo; conditions: n=6, HIE untreated 141.7+56.6
Procedure: C57BL6 mice were subjected to complete unilateral carotid blockage using cauterizer at P10 followed by 45 min hypoxic exposure at 8% O2, and this was followed by daily oral gavage delivery of J147 in a range of doses or vehicle at P10-P14. Then animals were sacrificed and processed for TUNEL staining. In sham group, very few TUNEL+ cells are observed in dentate gyrus (DG, 4.7+4.1/each). […] For 10 μg/g/day group and 25 μg/g/day group, 42.2+23 (p<0.001) and 31.7+21.4 (p<0.001) cells are found in DG (One-way ANOVA; n=6).

[3] = test system: neonatal hypoxic-ischemic brain injury in p10 C57BL6 mice; experiment: Y-maze spontaneous alternation test in HI mice; format: in vivo, mouse; conditions: 50 days after HI; p<0.001
Procedure: (§1) Postnatal day 10 mice were subjected to the modified Vanucci-Rice model of neonatal hypoxic-ischemic injury (permanent right common carotid artery ligation followed by 8% oxygen/balance nitrogen exposure) and then treatment started the same day by daily oral gavage with J147 at 10 mg/kg/day for 2 weeks after injury. Infarction volume, performance on functional tests of coordination, locomotion and memory, markers of neurogenesis, and apoptotic cell death were measured. Hypoxic-ischemic (HI) injury and J147 treatment: To induce HI injury, permanent right common carotid artery ligation was performed in p10 C57BL6 mice followed by 8% oxygen/balance nitrogen exposure for 45 min at 37° C. hypoxic chamber. From the day of HI injury, either J147 (10 mg/kg/day) or vehicle (corn oil, same volume) were once daily administered through oral gavage for a period of two weeks. […]

[4] = test system: neonatal hypoxic-ischemic brain injury in p10 C57BL6 mice; experiment: Postmortem MRI volumetric measurement of lesion in neonatal HI mouse model; format: in vivo
Procedure: Postnatal day 10 mice were subjected to the modified Vanucci-Rice model of neonatal hypoxic-ischemic injury (permanent right common carotid artery ligation followed by 8% oxygen/balance nitrogen exposure) and then treatment started the same day by daily oral gavage with J147 at 10 mg/kg/day for 2 weeks after injury. Infarction volume, performance on functional tests of coordination, locomotion and memory, markers of neurogenesis, and apoptotic cell death were measured. Hypoxic-ischemic (HI) injury and J147 treatment: To induce HI injury, permanent right common carotid artery ligation was performed in p10 C57BL6 mice followed by 8% oxygen/balance nitrogen exposure for 45 min at 37° C. hypoxic chamber. From the day of HI injury, either J147 (10 mg/kg/day) or vehicle (corn oil, same volume) were once daily administered through oral gavage for a period of two weeks. Magnetic resonance imaging (MRI): […] A 3D rapid acquisition with refocused echoes sequence was used (TE/TR=40/2000 ms, RARE factor=8, 4 signal averages, FOV=16.0 mm×9.0 mm×18.0 mm, matrix size=128×72×144, native resolution≈125×125×125 um3, time=3 h). Volumetric measurements were performed using ROI editor software.

[5] = test system: neonatal hypoxic-ischemic brain injury in p10 C57BL6 mice; experiment: Rotarod test in HI mice; format: in vivo, mouse; conditions: 5 weeks after HI
Procedure: as §1

[6] = test system: neonatal hypoxic-ischemic brain injury in p10 C57BL6 mice; experiment: Neural precursor marker fluorescence staining in HI mice; format: in vivo, mouse
[7] = test system: neonatal hypoxic-ischemia (HI) in mice; experiment: NeuN+ area and TUNEL+ cell count in hippocampus of HI mice
Procedure: Neonatal hypoxic-ischemia (HI) was performed at P10 and daily 10 μg/g J147 was gavage-fed from P10 to P14.

[8] = test system: neonatal hypoxic-ischemic brain injury in p10 C57BL6 mice; experiment: TTC staining infarct measurement in neonatal hypoxic-ischemic (HI) injury mouse model; format: in vivo
Procedure: Postnatal day 10 mice were subjected to the modified Vanucci-Rice model of neonatal hypoxic-ischemic injury (permanent right common carotid artery ligation followed by 8% oxygen/balance nitrogen exposure) and then treatment started the same day by daily oral gavage with J147 at 10 mg/kg/day for 2 weeks after injury. Infarction volume, performance on functional tests of coordination, locomotion and memory, markers of neurogenesis, and apoptotic cell death were measured. Hypoxic-ischemic (HI) injury and J147 treatment: To induce HI injury, permanent right common carotid artery ligation was performed in p10 C57BL6 mice followed by 8% oxygen/balance nitrogen exposure for 45 min at 37° C. hypoxic chamber. From the day of HI injury, either J147 (10 mg/kg/day) or vehicle (corn oil, same volume) were once daily administered through oral gavage for a period of two weeks. TTC staining: 24 h after HI injury, 2 mm coronal brain sections were immersed in 1% 2,3,5-Triphenyltetrazolium chloride (TTC) at 37° C. for 30 min. Images of individual sections were digitized and infarct area was measured with the ImageJ software. Injury volumes were calculated using [contralateral hemisphere volume-(ipsilateral hemisphere volume-lesion volume)]/contralateral hemisphere volume×100.

[9] = test system: neonatal hypoxic-ischemic brain injury in p10 C57BL6 mice; experiment: Open field test in HI mice; format: in vivo, mouse; conditions: 4 days post HI
Procedure: as §1

## Cc1cccc([C@H](C)c2cnc[nH]2)c1C [Dexmedetomidine]
[1]
  Effect on post-surgical cognitive dysfunction: failed to show efficacy

## COc1cccc(/C=N/N(C(=O)C(F)(F)F)c2ccc(C)cc2C)c1 [J147]
[2]; 0.5 μg/g/day oral gavage P10-P14, p>0.05
  TUNEL+ cells in dentate gyrus: 123.2+51.5 cells
[2]; 1 μg/g/day oral gavage P10-P14, p>0.05
  TUNEL+ cells in dentate gyrus: 107.8+42.7 cells
[2]; 5 μg/g/day oral gavage P10-P14, p<0.01
  TUNEL+ cells in dentate gyrus: 55+23.6 cells
[2]; 10 μg/g/day oral gavage P10-P14, p<0.001
  TUNEL+ cells in dentate gyrus: 42.2+23 cells
[2]; 25 μg/g/day oral gavage P10-P14, p<0.001
  TUNEL+ cells in dentate gyrus: 31.7+21.4 cells
[3]
  Y-maze spatial learning task, improvement compared to HI controls: 33%
[4]; 50 days after hypoxia-ischemia injury, J147 10 mg/kg/day for 2 weeks, 10 mg/kg/day
  Ipsilateral hemisphere volume as percentage of contralateral hemisphere volume by MRI, area of brain injury (FIG. 3): reduced lesion size; also recorded: substantial reduction of effect compared with HI; also recorded: almost entirely reduces the area of brain injury
[4]; MRI measurements at 50 days
  MRI reduction in infarction volume, HIJ mice compared with untreated HI mice: ~50%
[4]; adult mice, two weeks of J147 treatment 10 mg/kg/day oral gavage, p<0.001
  MRI imaging reduction in lesion size: 88%
[5]
  Performance in the rotarod test: significant improvement
[5]; chronic, J147 treatment group
  Rotarod test performance, improvement: about 25%
[6]; at one week after injury
  Tbr2-positive cells: significant increase
[6]; one day and one week after injury
  Nestin-positive cells: increased
[7]; HI+J147, daily 10 μg/g gavage P10 to P14, SH 0.52, HI 0.32, p=0.0433
  NeuN+ area in hippocampus: 0.45 mm2/section
[7]; HI+J147, daily 10 μg/g gavage P10 to P14, SH 36.33, HI 372.67, p=0.0092
  TUNEL+ apoptotic cells in hippocampus: 208.17 /section
[7]; J147 treatment, summary
  Reduction in apoptotic cell death in the hippocampus: roughly 50%
[8]; 24 hours after HI injury, J147 10 mg/kg/day oral gavage, 10 mg/kg/day
  Area of brain injury / lesion size by TTC staining (FIG. 2): reduced lesion size; also recorded: reduced areal extent of injury; also recorded: significantly reduces the area of brain injury
[8]; one day of J147 treatment, 10 mg/kg/day oral gavage, 24 h after HI injury, p<0.001
  Infarct size as measured by TTC staining, reduction relative to HI controls: 48%
[9]
  Performance in the open field test: significant improvement
[9]; J147 treatment group
  Open field test performance, improvement: about 25%

## [Mg+2] [Magnesium]
[1]
  Effect on post-surgical cognitive dysfunction: failed to reduce post-surgical cognitive dysfunction

## CCN(C)C(=O)Oc1cccc([C@H](C)N(C)C)c1 [Rivastigmine]
[1]; clinical investigation NCT00835159, terminated
  Safety in seriously ill patients after surgery: too dangerous
[1]
  Effect on post-surgical cognitive dysfunction: no efficacy was observed

## COc1cc2c(cc1OC)C(=O)C(CC1CCN(Cc3ccccc3)CC1)C2 (stereo not shown) [donepezil]
[1]; patients with cognitive decline one year after cardiac surgery
  Effect on the overall cognitive index: had no effect
